Experimental data taken from patent publication US6165984A, “Naringin and naringenin as inhibitors of acyl CoA-cholesterol-o-acyltransferase” (Korea Institute of Science & Technology, priority 1997, dated 2000).

Assays:
[1] = Serum γGTP in a habitual drinker (Example 7, Step 4); format: in vivo; conditions: human, oral, 6 mg/kg daily, 30 days; day 0: 129 IU/l
Description: On the other hand, naringin was orally administered to a person, who had drunk alcoholic beverages habitually in an amount of 100 cc per day, at a daily dose of 6 mg/kg for 30 days and serum γGTP level was determined just before the administration (day 0) and 30 days after the administration (day 30). Consequently, initial serum γGTP level at day 0 was 129 IU/l, while that of day 30 decreased to 69 IU/l which is within the normal range.

[2] = Serum GOT and GPT levels in rats (Example 7); format: in vivo, Sprague-Dawley rat; conditions: 1% cholesterol diet plus 0.02% naringin, six weeks
From the text: 20 four-week-old Sprague-Dawley rats (Taihan laboratory animal center, Korea) each weighing about 90 to 110 g were evenly divided into two dietary groups by a randomized block design. The rats of the two groups were fed with two different high-cholesterol diets, i.e., AIN-76 laboratory animal diet (ICN Biochemicals, Cleveland, Ohio, U.S.A.) containing 1% cholesterol (Control group), and 1% cholesterol plus 0.02% naringin, respectively.
Blood samples were taken from the rats of the two dietary groups and serum GOT (glutamate-oxaloacetate transaminase) and GPT (glutamate-pyruvate transaminase) levels were determined in accordance with the method of Reitman and Frankel (Reitman, S. and J. S. Frankel, Am. J. Clin. Pathol., 28, 56(1956)). GOT and GPT are synthesized in the liver and heart, and released into blood stream upon the damage of these organs. Accordingly, GOT and GPT are representative markers of the liver-function and high serum GOT and GPT levels mean severe damage of the liver.

## C[C@@H]1O[C@@H](O[C@H]2[C@H](Oc3cc(O)c4c(c3)O[C@H](c3ccc(O)cc3)CC4=O)O[C@H](CO)[C@@H](O)[C@@H]2O)[C@H](O)[C@H](O)[C@H]1O [naringin, Naringin]
[1]
  serum γGTP level at day 30: 69 IU/l
[2]
  serum GOT level lower than control group: about 30%
  serum GPT level lower than control group: ~10%
